# Results taken from patent US20100137411A1, “RAS-MEDIATED EPIGENETIC SILENCING EFFECTORS AND USES THEREOF” (University of Massachusetts, priority 2007, published 2010).
# How the values were obtained:
# Assay type in all cases: cell-based, mouse
# Fas promoter [1] = assay: Methylated DNA immunoprecipitation (MeDIP) of the Fas promoter; settings: K-ras NIH 3T3 cells, 10 μM 5-aza for 72 h
# From the text: To facilitate analysis of the methylation status of these three regions in the 28 K-ras NIH 3T3 KD cell lines we established and validated a rapid methylated DNA immunoprecipitation (MeDIP) assay, in which the antibody is directed against 5-methyl-cytosine (Weber, M. et al., Nat. Genet. 37, 853-862 (2005)). […] We then assessed the three hypermethylated Fas promoter regions in each of the 28 K-ras NIH 3T3 KD cell lines.
# (§1) Chromatin immunoprecipitation (ChIP) and methylated DNA immunoprecipitation (MeDIP). ChIP assays were performed using extracts prepared 7 days following retroviral transduction and puromycin selection. […] MeDIP and ChIP products were visualized by autoradiography, or analyzed by quantitative real-time PCR using Platinum SYBR Green qPCR SuperMix-UDG with Rox (Invitrogen). […] Quantitative real time RT-PCR. […] Reverse transcription was performed using SuperScript II Reverse Transcriptase (Invitrogen) as per the manufacturer's instructions, followed by quantitative real-time PCR as described above. […] Tumour dimensions were measured every 3 days from the time of appearance of the tumours, and tumour volume was calculated using the formula π/6×(length)×(width)^2. […]
# Fas = assay: Immunoblot analysis of Fas re-expression in K-ras NIH 3T3 cells; settings: 10 μM 5-aza for 72 h
# Method: (§2) Cell culture. NIH 3T3 (ATCC# CRL-1658) and K:Molv NIH 3T3 (ATCC# CRL-6361; referred to here as K-ras NIH 3T3) cells were maintained in DMEM supplemented with 10% FCS at 37° C. and 5% CO2. For 5-aza-2′-deoxycytidine (5-aza) treatment, K-ras NIH 3T3 cells were treated with 10 μM 5-aza for 72 h.
# Immunoblot analysis. To prepare cell extracts, K-ras NIH 3T3 knockdown cell lines were harvested 7 days following retroviral transduction and puromycin selection (1.5 μg ml^−1) and lysed by boiling in 1× SDS sample buffer (Laemmli buffer) for 5 min. Proteins were resolved by 12% SDS-PAGE. Immunoblot analysis was performed using an anti-Fas (sc-716; Santa Cruz) or anti-p21 Ras (ab16795; Abcam) antibody to monitor expression of K-Ras (as a loading control), and an appropriate HRP-conjugated secondary antibody. Proteins were visualized using SuperSignal West Pico Luminol/Enhancer Solution (Pierce).
# [2] = system: Sfrp1, Par4/Pawr, Plagl1, H2-K1 and Lox; assay: qRT-PCR expression of other epigenetically silenced genes in K-ras NIH 3T3 cells; settings: 10 μM 5-aza for 72 h
# Method: as §2, §1
# Fas promoter [3] = assay: Bisulphite sequencing of the Fas promoter; settings: shRNA knockdown
# Method: Bisulphite sequencing. Bisulphite modification was carried out essentially as described (Frommer, M. et al., Proc. Natl. Acad. Sci. USA 89, 1827-1831 (1992)) except that hydroquinone was used at a concentration of 125 mM during bisulphite treatment carried out in the dark and DNA was desalted on Qiaquick columns (Qiagen) after the bisulphite reaction. The regions analyzed were amplified by nested PCR. The first round comprised 24 cycles at 94° C. for 1 min, 48° C. for 1 min 30 s, and 72° C. for 1 min. One-tenth of the product was used as substrate for the second round of PCR comprising 28 cycles at 94° C. for 1 min, 48° C. for 1 min 30 s, 72° C. for 1 min.
Molecule,hypermethylation of Fas promoter TSS/DS region (MeDIP) (Fas promoter [1]),Fas expression (Fas),"expression of Sfrp1, Par4/Pawr, Plagl1, H2-K1 and Lox (all five genes) [2]",hypermethylation of three Fas promoter regions (bisulphite sequencing) (Fas promoter [3]; H-ras transformed C3H10T1/2 cells),hypermethylation of TSS/DS region of the Fas promoter (bisulphite sequence analysis) (Fas promoter [3]; K-ras NIH 3T3 cells)
"Nc1ncn([C@H]2C[C@H](O)[C@@H](CO)O2)c(=O)n1 [5-aza, 5-aza-2′-deoxycytidine]",not hypermethylated,restored Fas expression,re-expressed,–,–
DNMT1: shRNA knocking down DNMT1; Open Biosystems V2MM_46797 or synthesized shRNA SEQ ID NO: 5 (nucleic acid) TGCTGTTGACAGTGAGCGCGCCCATCCTCAGGGACCATATTAGTGAAGCCACAGATGTAATATGGTCCCTGAGGATGGGCTTGCCTACTGCCTCGGA,–,–,–,not,no longer hypermethylated
